From patent US6436954B1, “Benzoquinolizidine and benzoindolizidine derivatives and therapeutic uses thereof” (priority 1998, dated 2002)

What was measured:
[1] = target: T1, acetylcholinesterase (Rattus norvegicus, UniProt P37136); test: Acetylcholinesterase activity in rat brain homogenate (Ellman spectrophotometric method); format: biochemical, Wistar rat; conditions: rat brain enzyme preparation
T1 construct: Wistar rat brain was homogenized in 10% (w/v) of ice-cold Tris-buffered saline; from tissue; host or cells: Wistar rat brain homogenate, 10,000 g supernatant
T1 sequence (P37136 32-614): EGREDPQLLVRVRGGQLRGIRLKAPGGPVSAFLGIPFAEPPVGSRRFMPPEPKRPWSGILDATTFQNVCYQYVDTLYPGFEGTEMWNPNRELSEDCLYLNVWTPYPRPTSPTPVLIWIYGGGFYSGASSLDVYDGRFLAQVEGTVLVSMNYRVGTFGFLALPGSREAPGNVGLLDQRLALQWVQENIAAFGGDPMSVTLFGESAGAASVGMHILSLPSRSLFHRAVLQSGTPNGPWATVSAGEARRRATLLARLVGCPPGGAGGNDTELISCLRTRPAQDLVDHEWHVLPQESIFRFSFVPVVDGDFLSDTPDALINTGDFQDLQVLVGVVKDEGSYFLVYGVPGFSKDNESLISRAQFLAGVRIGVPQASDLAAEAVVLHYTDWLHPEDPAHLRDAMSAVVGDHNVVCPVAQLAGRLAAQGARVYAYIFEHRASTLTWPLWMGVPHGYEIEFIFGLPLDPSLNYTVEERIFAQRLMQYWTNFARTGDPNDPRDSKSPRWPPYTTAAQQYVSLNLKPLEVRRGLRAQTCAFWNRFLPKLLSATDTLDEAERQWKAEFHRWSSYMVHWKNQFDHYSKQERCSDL
Protocol: Wistar rat brain was homogenized in 10% (w/v) of ice-cold Tris-buffered saline which comprised 10 mM Tris HCl, pH 7.4, 1 mM ethylenediaminetetraacetic acid, 0.9% (w/v) bovine serum albumin. Homogenates were centrifuged at 10,000 g for 10 minutes at 4° C. Supernatants were decanted and stored in aliquots at −70° C. until required.
Briefly, the assay was carried out at room temperature using 0.1 M phosphate buffer, pH 8.0, containing 0.075 M acetylthiocholine iodide and 0.01 M 5,5-dithio-bis-(2-nitrobenzoic acid) (DTNB). The DTNB was prepared in 0.1 M phosphate buffer, pH 7.0, which contained 0.018 M sodium bicarbonate to ensure stability. The reaction was started by the addition of 100 μg of enzyme preparation to a final assay volume of 3.2 ml, and mixed thoroughly. Progress was monitored spectrophotometrically at 412 nm for a continuous period. A blank was run in conjunction with each assay and differed from the test only in that it contained phosphate buffer in place of acetylthiocholine iodide. AchE was assayed in the presence of ethopropazine, which was prepared in ethanol. […] BCHE was measured in the presence of 10^−5 M 1,5-bis-(4-trimethylammoniophenyl)pentan-3-one dibromide (62C47), a specific acetylcholinesterase inhibitor which was added to a final concentration of 10^−5 M. All solutions were freshly prepared and protected from light. Acetylthiocholine, DTNB, 62C47 and ethopropazine were obtained from Sigma Chemical Co., St. Louis, Mo. All other reagents were of the highest grade available from routine suppliers.
Results are expressed as mM acetylthiocholine hydrolysed/100 ug protein/min in Table 1. […] To facilitate comparison between compounds requiring different solubilization vehicles, the relevant results are expressed as percent of the control value in Table 2.

[2] = tested on: scopolamine-impaired passive avoidance learning; test: Reversal of scopolamine-induced amnesia of a passive-avoidance response; format: in vivo, Wistar rats; conditions: mean ± SEM (n)
Protocol: (b) Reversal of Scopolamine-induced Amnesia of a Passive-avoidance Response.
Postnatal day 80 male Wistar rats (300-350 g) were obtained from the Biomedical Facility, University College, Dublin. These were housed singly in a 12 h light/dark cycle with food and water available ad libitum. Animals employed for neurobehavioral studies were maintained and handled in the test environment for 3 days prior to the commencement of studies. All experimental procedures were approved by the Review Committee of the Biomedical Facility of University College, Dublin and were carried out by individuals who held the appropriate license issued by the Ministry of Health.
Animals were trained in a one-trial, step-through, light-dark passive avoidance paradigm. The apparatus consisted of a box measuring 300 mm wide×260 mm deep×270 mm high. The front and top were transparent, allowing observation of behavior inside the apparatus. The box was divided into two compartments, separated by a central shutter which contained a small opening 50 mm wide and 75 mm high. The smaller of the compartments measured 90 mm in width and contained a low power (6 V V) illumination source—the light compartment. The large compartment measured 210 mm in width and was not illuminated. The floor of the training apparatus consisted of a grid of stainless steel bars which could deliver a remotely-controlled, scrambled shock (0.75 mA every 0.5 msec, 5 sec duration) when the animal entered the dark chamber with all four paws. The animals were tested for recall of this inhibitory stimulus prior to sacrifice by placing them into the light compartment and noting their latency to enter the dark compartment. A criterion period of 300 sec was used. The results of this protocol, after administration of saline, scopolamine, test compound, and scopolaine plus test compound, are presented in Table 3.

[3] = test compound 10 mg/kg + scopolamine 0.8 mg/kg
[4] = test compound 10 mg/kg alone, 10 mg/kg
[5] = test compound 30 mg/kg + scopolamine 0.8 mg/kg

Row | Structure (SMILES) | Acetylcholinesterase activity in the presence of compound ([1]; compound concentration 10 μM) | Acetylcholinesterase activity in the presence of compound ([1]; compound concentration 1.0 mM) | passive avoidance latency, Test cpd. + scopolamine [2, 3] | passive avoidance latency, Test cpd. + scopolamine [2, 5] | Acetylcholinesterase activity in the presence of compound ([1]; compound concentration 100 nM) | other results
1 | O[C@@H]1c2ccccc2CN2CCC[C@@H]12 (relative stereo) | – | – | – | – | – | melting point: 131 to 133 °C
2 | CN[C@@H]1c2ccccc2CN2CCCC[C@H]12 (relative stereo) [Example 9, trans-N-Methyl-1,3,4,6,11,11a-hexahydro-11-amino-2H-benzo[b]quinolizine] | 2.00 mM substrate hydrolyzed/min/100 μg protein | 0.30 mM substrate hydrolyzed/min/100 μg protein | 104 ± 48 (12) seconds | 258 ± 156 (5) seconds | – | passive avoidance latency, Test cpd. alone [2, 4]: 459 ± 53 (12) seconds; passive avoidance latency, Test cpd. alone ([2]; test compound 30 mg/kg alone): 529 ± 78 (6) seconds; passive avoidance latency, Test cpd. + scopolamine ([2]; test compound 45 mg/kg + scopolamine 0.8 mg/kg): 322 ± 112 (8) seconds; passive avoidance latency, Test cpd. alone ([2]; test compound 45 mg/kg alone): 340 ± 146 (5) seconds
3 | CN[C@@H]1c2ccccc2CN2CCCC[C@H]12 (relative stereo) [Example 9a, trans-N-Methyl-1,3,4,6,11,11a-hexahydro-11-amino-2H-benzo[b]quinolizine] | – | – | 216 ± 260 (2) seconds | – | – | passive avoidance latency, Test cpd. alone [2, 4]: 328 ± 177 (3) seconds
4 | CN[C@@H]1c2cc(OC)ccc2CN2CCCC[C@H]12 (relative stereo) [Example 10, trans-N-Methyl-9-methoxy-1,3,4,6,11,11a-hexahydro11-amino-2H-benzo[b]quinolizine] | – | – | 054 ± 20 (6) seconds | – | – | passive avoidance latency, Test cpd. alone ([2]; test compound 10 mg/kg alone): 592 ± 9 (6) seconds
5 | c1ccc(CN[C@@H]2c3ccccc3CN3CCCC[C@H]23)cc1 (relative stereo) [Example 13, trans-N-Benzyl-1,3,4,6,11,11a-hexahydro-11-amino-2H-benzo[b]quinolizine] | 1.90 mM substrate hydrolyzed/min/100 μg protein | 0.20 mM substrate hydrolyzed/min/100 μg protein | 048 ± 14 (5) seconds | – | 2.30 mM substrate hydrolyzed/min/100 μg protein | passive avoidance latency, Test cpd. alone ([2]; test compound 10 mg/kg alone): 410 ± 115 (6) seconds
6 | COc1ccc2c(c1)[C@@H](NCc1ccccc1)[C@H]1CCCCN1C2 (relative stereo) [Example 14, trans-N-Benzyl-9-methoxy-1,3,4,6,11,11a-hexahydro-11-amino-2H benzo[b]quinolizine] | – | – | – | 211 ± 238 (3) seconds | – | –
7 | N[C@@H]1c2ccccc2CN2CCCC[C@H]12 (relative stereo) [Example 15, trans-1,3,4,6,11,11a-Hexahydro-11-amino-2H-benzo[b]quinolizine] | 2.00 mM substrate hydrolyzed/min/100 μg protein | 0.20 mM substrate hydrolyzed/min/100 μg protein | 148 ± 101 (5) seconds | 132 ± 103 (6) seconds | 2.20 mM substrate hydrolyzed/min/100 μg protein | passive avoidance latency, Test cpd. alone ([2]; test compound 10 mg/kg alone): 292 ± 92 (6) seconds; passive avoidance latency, Test cpd. alone ([2]; test compound 30 mg/kg alone): 188 ± 102 (6) seconds
8 | CN[C@@H]1c2ccccc2CN2CCCC[C@@H]12 (relative stereo) [Example 17, cis-N-methyl-1,3,4,6,11,11a-hexahydro-2H-benzo[b]quinolizidin-11-amine] | 1.90 mM substrate hydrolyzed/min/100 μg protein | 0.80 mM substrate hydrolyzed/min/100 μg protein | – | – | 2.00 mM substrate hydrolyzed/min/100 μg protein | –
9 | O[C@@H]1c2ccccc2CN2CCCC[C@@H]12 (relative stereo) [Example 18a, cis-1,3,4,6,11,11a-hexahydro-2H-benzo[b]quinolizidin-11-ol] | 2.10 mM substrate hydrolyzed/min/100 μg protein | 1.70 mM substrate hydrolyzed/min/100 μg protein | – | – | 2.30 mM substrate hydrolyzed/min/100 μg protein | –
10 | O[C@@H]1c2ccccc2CN2CCCC[C@H]12 (relative stereo) [Example 18b, trans-1,3,4,6,11,11a-hexahydro-2H-benzo[b]quinolizidin-11-ol] | 1.90 mM substrate hydrolyzed/min/100 μg protein | 1.00 mM substrate hydrolyzed/min/100 μg protein | – | – | 2.50 mM substrate hydrolyzed/min/100 μg protein | –
11 | CC(=O)O[C@@H]1c2ccccc2CN2CCCC[C@@H]12 (relative stereo) [Example 19, O-acetyl-cis-1,3,4,6,11,11a-hexahydro-2H-benzo[b]quinolizidin-11-ol] | 1.90 mM substrate hydrolyzed/min/100 μg protein | 0.70 mM substrate hydrolyzed/min/100 μg protein | – | – | 2.20 mM substrate hydrolyzed/min/100 μg protein | –
12 | CC(=O)O[C@@H]1c2ccccc2CN2CCCC[C@H]12 (relative stereo) [Example 20, O-acetyl-trans-1,3,4,6,11,11a-hexahydro-2H-benzo[b]quinolizidin-11-ol] | 1.40 mM substrate hydrolyzed/min/100 μg protein | 0.30 mM substrate hydrolyzed/min/100 μg protein | – | – | 2.10 mM substrate hydrolyzed/min/100 μg protein | –
13 | CN[C@@H]1c2ccccc2CN2C(=O)CC[C@@H]12 (relative stereo) [Example 26b, cis-10Methylamino-1,2,3,5,10,10a-hexahydropyrrolo[1,2b]isoquinolin-3-one] | – | – | – | 182 ± 163 (4) seconds | – | passive avoidance latency, Test cpd. alone ([2]; test compound 30 mg/kg alone): 600 (3) seconds
14 | CN[C@@H]1c2ccccc2CN2CCC[C@@H]12 (relative stereo) [Example 34a, cis-10-methylamino-1,2,3,5,10,10a-hexahydropyrrolo[1,2-b]isoquinoline] | – | – | – | 534 ± 76 (3) seconds | – | passive avoidance latency, Test cpd. alone ([2]; test compound 30 mg/kg alone): 559 ± 50 (3) seconds
